In PMC12217481, “Structure and mechanism of taniborbactam inhibition of the cefepime-hydrolyzing, partial R2-loop deletion Pseudomonas-derived cephalosporinase variant PDC-88” (Antimicrobial Agents and Chemotherapy, 2025):

Legend:
PDC-88 [1] = target: T1, PDC-88 (Pseudomonas aeruginosa, UniProt P24735, DEL316-317/G27D/G391A/T105A/V205L/V356I); assay: biochemical; format: biochemical
T1 construct: NdeI 5′-[…]-3ʹ and BamHI 5ʹ-[…]-3ʹ; His tag removed) (N); made in house; host or cells: E. coli BL21-CodonPlus (DE3)-RP, pET24a(+)
Protocol: (§1) β-Lactamase kinetic and inhibitor constants were determined using an Agilent 8453 UV-Visible Spectrophotometer to record progress curves and determine initial rates and other kinetic parameters as appropriate. Reactions were carried out in 1× phosphate-buffered saline (PBS) (pH 7.4) at room temperature in a 0.2 cm path-length quartz cuvette (Hellma Analytics). Reads were taken every 10 s to minimize UV-mediated background hydrolysis.
(§2) Competitive inhibition assays were used to determine IC50 and Ki app. Nitrocefin (a reporter substrate), enzyme, and inhibitor were mixed, and initial velocities were determined. […] Inverse steady-state velocities (1/V0) were plotted against inhibitor concentration ([I]), forming a straight line. The y-intercept of this line was divided by the slope of the line to yield Ki app obs and IC50 values. Apparent Ki values (Ki app) were determined by correcting for the affinity of nitrocefin in the active site using equation 2:
(§3) (2) KI app= KI app{obs/1+[S]/KM NCF

PDC-88 [2] = target: T1, PDC-88; assay: Off-rate (koff) by jump-dilution, PDC-88; format: biochemical
Protocol: (§4) The off-rates (koff) were determined using a jump-dilution method ([44]). […] The enzyme was serially diluted to 1 nM, and 100 μM nitrocefin was added to initiate the reaction. Recovery progress covers were recorded at 482 nm. The koff value was determined by fitting the progress curves to a single exponential equation. The half-life was determined by dividing ln(2) by koff.

PDC-3 [3] = target: T2, PDC-3 (Pseudomonas aeruginosa, UniProt P24735, T105A); assay: Off-rate (koff) by jump-dilution, PDC-3; format: biochemical
T2 construct: The PDC-3 expression construct was created in a similar manner but starting with a previously described pBC SK(−) vector; made in house; host or cells: E. coli BL21-CodonPlus (DE3)-RP, pET24a(+)
Protocol: as §4

PDC-3 [4] = target: T2, PDC-3; assay: Thermal denaturation by circular dichroism, PDC-3; format: binding
Protocol: Competitive enzyme inhibitors can increase enzyme thermal stability as a result of binding to the active site.
Circular dichroism (CD) melting curve experiments were conducted using a J-815 spectropolarimeter (Jasco) and a Peltier effect temperature controller. Suprasil quartz cuvettes with a 0.1 cm path length (Hellma Analytics) were used in all experiments. […] Two-state behavior was observed, as indicated by identical curves at each wavelength. Equilibrium constants were calculated, and the melting temperature, Tm, was calculated from equilibrium denaturation data as previously described ([28]).

PDC-88 [5] = target: T1, PDC-88; format: binding
Protocol: Circular dichroism (CD) melting curve experiments were conducted using a J-815 spectropolarimeter (Jasco) and a Peltier effect temperature controller. Suprasil quartz cuvettes with a 0.1 cm path length (Hellma Analytics) were used in all experiments. […] Equilibrium constants were calculated, and the melting temperature, Tm, was calculated from equilibrium denaturation data as previously described ([28]).

[6] = system: isogenic E. coli strains expressing PDC R2-loop deletion variants (PDC-88 to PDC-92); assay: MIC changes across the five isogenic E. coli R2-loop deletion strains; format: cell-based, Escherichia coli; conditions: inhibitor at constant 4 µg/mL; R2-loop deletion variant strains
Protocol: Modal broth microdilution MICs (or median broth microdilution MICs where appropriate) were determined in accordance with Clinical and Laboratory Standards Institute (CLSI) M07 guidelines ([43]). Isogenic E. coli DH10B cells expressing the abovementioned plasmid-encoded PDC constructs were used. […] CLSI quality control strains Escherichia coli NCTC 13353, E. coli ATCC 35218, and Klebsiella pneumoniae ATCC 700603 were used during testing ([24]).

PDC-3 [7] = target: T2, PDC-3; assay: Competitive inhibition assay with nitrocefin (Ki app, IC50), PDC-3; format: biochemical
Protocol: as §1, §2, §3

## NCCN[C@H]1CC[C@H](CC(=O)N[C@H]2Cc3cccc(C(=O)O)c3OB2O)CC1 [TAN, taniborbactam]
PDC-88 [1]
  IC50: 22 ± 2 nM
  Ki: 610 ± 60 nM
PDC-88 [1]; PDC-88
  Ki app lower compared to avibactam: 9 fold
  Ki app lower than TZB: 95 fold
PDC-88 [2]
  koff: 0.0007 ± 0.0001 s⁻¹
PDC-3 [3]
  koff: 0.0012 ± 0.0001 s⁻¹
PDC-3 [4]; PDC-3
  increase of Tm upon addition of inhibitor: +9 °C
PDC-3 [4]; PDC-3 with inhibitor, circular dichroism, PDC-3 alone 52°C
  Tm: 61 °C
PDC-88 [5]; PDC-88
  increase of Tm upon addition of inhibitor: +7 °C
PDC-88 [5]; PDC-88 with inhibitor, circular dichroism, PDC-88 alone 53°C
  Tm: 60 °C
[6]
  restoration of FEP activity / susceptibility by inhibitor: restoring FEP activity in all cases
PDC-3 [7]
  Ki app lower compared to avibactam: 4.1 fold
  Ki app lower than TZB: 40 fold
PDC-3 [7]; nitrocefin reporter substrate
  Ki: 660 ± 70 nM
PDC-3 [7]; nitrocefin reporter substrate, 5 min preincubation
  IC50: 16 ± 2 nM
